We go through 15 compounds from patent US20070073056A1, “4-Substituted Pyrazoline Compounds, their Preparation and Use as Medicaments” (LABORATORIOS DEL DR. ESTEVE, S.A., priority 2005, published 2007).

Where a name gives a salt, the structure may show the parent alone. Read-outs that look alike come from different tables or passages of the source.

Assay [1] concerns the target recombinant human cannabinoid 1 receptor (CB1) (Homo sapiens, UniProt P21554). The assay is described as follows: [35S]GTPγS binding assay, antagonism to CB1-receptor (Pharmacological methods, part V). The format is biochemical. The following applies: compound at 1 μM against agonist WIN 55,212-2; 100% = effect of Rimonabant (1 μM); CHO membranes. The method, then: V. In vitro Determination of Antagonism to CB1-Receptor
Chinese hamster ovary (CHO) cells stably expressing recombinant human cannabinoid 1 receptor (CB1) were cultured in nutrient mixture Ham's F 12 supplemented with 10% heat-inactivated fetal bovine serum, 2 mM L-glutamine, 50 U/ml penicillin, 50 U/ml streptomycin and 0.5 mg/ml geneticin. In order to obtain cells, culture flasks were washed twice with phosphate buffered saline and scraped. Then, cells were collected by centrifugation (200×g, 10 min) and stored dry at −80° C. Cells were homogenized in ice-cold 20 mM HE PES, 10 mM EDTA (pH 7.5) and centrifuged at 40,000×g for 15 min at 4° C. The pellet was resuspended in 20 mM HEPES, 0.1 mM EDTA (pH 7.5) and centrifuged for 15 min at 4° C. The final pellet was resuspended in 20 mM HEPES, 0.1 mM EDTA (pH 7.5), and divided in aliquots and stored at −80° C. until use.
[^35S]GTPγS Binding Assay:
The reaction was performed in 96-well plates. […] The incubation was terminated by rapid filtration through Millipore Multiscreen glass fiber FB, and rinsed two-times with ice-cold assay buffer. Filter plates were dried and 30 μl of scintillation liquid was added. Radioactivity was determined using Wallac Microbeta Trilux. Each experiment was performed at least in duplicate.
The average of basal [35S]GTPγS binding was subtracted from all binding data.
The antagonism of the pyrazoline compounds of general formula I to the CB1-receptor was determined according to the method described in Pharmacological methods, part V (table 2).
A general note: GTPγS is a poorly hydrolysed GTP analogue; its binding reports G protein activation.

Assay [2] has as its target CB1-receptor (UniProt P20272). The assay is described as follows: binding of the pyrazoline compounds to CB1-receptors (Pharmacological Methods, Part I). Also noted: IC50; species or system human or rat. On the procedure:
I. In-vitro Determination of Affinity to CB1/CB2-Receptors
The in-vitro determination of the affinity of the inventive 4-substituted pyrazoline compounds to CB1/CB2-Rezeptors is carried out as described in the publication of Ruth A. Ross, Heather C. Brockie et al., “Agonist-inverse agonist characterisation at CB1 and CB2 cannabinoid receptors of L-759633, L759656 and AM630”, British Journal of Pharmacology, 126, 665-672, (1999), whereby the transfected human CB1 and CB2 receptors of Receptor Biology, Inc. are used. The radioligand used for both receptors is [^3H]-CP55940. The respective parts of the description is hereby incorporated by reference and forms part of the present disclosure.
Rat Cerebellum CB1 Binding
Binding affinity to CB1 receptor was evaluated according to a modification of the method described by Govaerts et al., Eur J Pharmac Sci 23, 233-243 (2004). The respective parts of the description is hereby incorporated by reference and forms part of the present disclosure.
Briefly, cerebellum from male wistar rats (250-300 g) were carefully dissected on ice and homogenates were prepared with Potter-Helveheim in a cold 50 mM Tris-HCl solution containing 5 mM MgCl2, 1 mM EDTA and 0.25 M sucrose, pH 7.4. The suspension was centrifuged at […] for 5 minutes. The supernatants were collected and centrifuged 50,000×g for 15 minutes. The resulting pellets were then resuspended in Tris-HCl buffer without sucrose, homogenized and incubated for 15 min at 37° C. in an orbital shaker bath and centrifuged again at 50,000×g for 15 min. Pellets were weighted, resuspended in Tris-HCl buffer without sucrose, homogenized with Ultraturrax at 13,500 rpm for 3×5 seconds and alicuoted in 0.9 ml volumes in Eppendorf tubes. Alicuotes were centrifuged at 20,800×g for 5 minutes, supernatants discarded and pellets were frozen at −80° C. until use. Total protein concentration was determined using the Bio-Rad Lowry method based kit. Competitive binding experiments were performed in presence of 1 nM [^3H]-CP 55,940 in siliconized glass tubes containing 100 μg protein/tube resuspended in 1 ml final volume of 50 mM Tris-HCl, 5 mM MgCl2, 1 mM EDTA, 0.5% (w/v) bovine serum albumin, pH 7.4. Compounds were present at various concentrations and the non specific binding was determined in the presence of 10 μM HU-210. After 1 hour incubation at 30° C., the suspension was rapidly filtered through 0.5% PEI pre-treated GF/B fiber filters on a 96-well harvester and washed 3 times with 3 ml ice-cold binding buffer without bovine serum albumin. Radioactivity on filters was measured with Wallac Winspectral 1414 counter by liquid scintillation in 6 ml Ecoscint H (National Diagnostics, U.K.). Assays were made in triplicates.
Binding data were analyzed by non-linear regression with the software GraphPad Prism Version 3.03.
The binding of the pyrazoline compounds of general formula I to CB1-receptors was determined according to the method described in the section Pharmacological Methods, Part I.

For assay [3], the target named is CB1-receptor (UniProt P20272). Described as above. Also noted: other: 10^−7 M; other: 10^−8 M; species or system human or rat. The method, boiled down: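 Rat cerebellum membranes (male Wistar), 100 μg protein, competed against 1 nM [3H]-CP 55,940 in 50 mM Tris-HCl, 5 mM MgCl2, 1 mM EDTA, 0.5% BSA, pH 7.4; 1 h at 30 °C. Non-specific binding with 10 μM HU-210; filtration and scintillation counting, triplicates, non-linear regression.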

Setting [4] is: radioligand [3H]-CP55940, read-out: IC50.

Sequence of recombinant human cannabinoid 1 receptor (CB1) (P21554 whole entry): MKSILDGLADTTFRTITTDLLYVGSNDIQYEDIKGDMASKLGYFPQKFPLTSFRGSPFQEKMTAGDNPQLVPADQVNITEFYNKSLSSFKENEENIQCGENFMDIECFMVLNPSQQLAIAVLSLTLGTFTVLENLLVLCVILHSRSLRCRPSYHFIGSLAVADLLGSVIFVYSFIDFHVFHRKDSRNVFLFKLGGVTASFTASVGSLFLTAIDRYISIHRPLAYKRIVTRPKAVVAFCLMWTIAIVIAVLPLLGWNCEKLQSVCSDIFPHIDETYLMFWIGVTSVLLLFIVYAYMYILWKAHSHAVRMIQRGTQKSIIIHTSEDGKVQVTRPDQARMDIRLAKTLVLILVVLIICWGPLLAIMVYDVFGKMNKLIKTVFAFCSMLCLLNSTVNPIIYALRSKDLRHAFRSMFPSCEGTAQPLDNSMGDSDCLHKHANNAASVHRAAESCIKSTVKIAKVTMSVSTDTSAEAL

In the case of `CC[C@@H]1C(C(=O)NN2CCCCC2)=NN(c2ccc(Cl)cc2Cl)[C@@H]1c1ccc(Cl)cc1` (relative stereo) [Example 432, cis-5-(4-chlorophenyl)-1-(2,4-dichlorophenyl)-4-ethyl-N-(piperidin-1-yl)-4,5-dihydro-1H-pyrazole-3-carboxamide], the Antagonism in assay [1] came out at 89%. For the same compound, the IC50 on CB1-receptor [2] (setting [4]) came to 89 nM.
For `C[C@@H]1C(C(=O)NN2CCCCC2)=NN(c2ccc(Cl)cc2Cl)[C@@H]1c1ccccc1` (relative stereo) [Example 375, cis-1-(2,4-dichlorophenyl)-4-methyl-5-phenyl-N-(piperidin-1-yl)-4,5-dihydro-1H-pyrazole-3-carboxamide], in that order: 58% and 140 nM.
Taken in the same sequence, the figures for `C[C@@H]1C(C(=O)NN2CCCCC2)=NN(c2ccc(Cl)cc2Cl)[C@@H]1c1cccs1.Cl` (relative stereo) [Example 430, cis-1-(2,4-dichlorophenyl)-4-methyl-N-(piperidin-1-yl)-5-(thiophen-2-yl)-4,5-dihydro-1H-pyrazole-3-carboxamide hydrochloride] were 23% and more than 1000 nM.
With `C[C@H]1C(C(=O)NN2CCCCC2)=NN(c2ccc(Cl)cc2Cl)[C@H]1c1ccc(Br)s1` (relative stereo) [Example 70, cis-5-(5-Bromo-thiophen-2-yl)-1-(2,4-dichloro-phenyl)-4-methyl-4,5-dihydro-1H-pyrazole-3-carboxylic acid piperidin-1-ylamide], the Antagonism in assay [1] is 81%.
For the compound `COc1ccc([C@@H]2[C@H](C)C(C(=O)NN3CCCCC3)=NN2c2ccc(Cl)cc2Cl)cc1` (relative stereo) [Example 410, cis-1-(2,4-dichlorophenyl)-5-(4-methoxyphenyl)-4-methyl-N-(piperidin-1-yl)-4,5-dihydro-1H-pyrazole-3-carboxamide], at CB1-receptor [2] (setting [4]), the IC50 worked out at 82 nM. In addition, the Inhibition is 58.1% at CB1-receptor [3] (10^−7 M) and 42.4 at CB1-receptor [3] (10^−8 M, in %).
`C[C@@H]1C(C(=O)NC2CCCCCCC2)=NN(c2ccc(Cl)cc2Cl)[C@@H]1c1ccc(Cl)cc1` (relative stereo) [Example 119, cis-5-(4-chlorophenyl)-N-cyclooctyl-1-(2,4-dichlorophenyl)-4-methyl-4,5-dihydro-1H-pyrazole-3-carboxamide]: the IC50 at CB1-receptor [2] (setting [4]) is 51.4 nM. Further, the Inhibition on CB1-receptor [3] (10^−7 M) was 73.7%; on CB1-receptor [3] (10^−8 M, in %), 19.5.
For `C[C@H]1C(C(=O)NN2CCCCCC2)=NN(c2ccc(Cl)cc2Cl)[C@H]1c1ccc(F)cc1.Cl` (stereo in doubt) [Example 227, cis-N-(azepan-1-yl)-1-(2,4-dichlorophenyl)-5-(4-fluorophenyl)-4-methyl-4,5-dihydro-1H-pyrazole-3-carboxamide hydrochloride], in that order: 122 nM, 65.3% and 15.3.
For `C[C@H]1C(C(=O)NC2CCCCCC2)=NN(c2ccc(Cl)cc2Cl)[C@H]1c1ccc(Br)cc1` (relative stereo) [Example 211, cis-5-(4-bromophenyl)-N-cycloheptyl-1-(2,4-dichlorophenyl)-4-methyl-4,5-dihydro-1H-pyrazole-3-carboxamide], in that order: 30 nM, 69.8% and 37.2.
Taken in the same sequence, the figures for `C[C@H]1C(C(=O)NC2CCCCCC2)=NN(c2ccc(Cl)cc2Cl)[C@H]1c1ccc(F)cc1` (relative stereo) [Example 231, cis-N-cycloheptyl-1-(2,4-dichlorophenyl)-5-(4-fluorophenyl)-4-methyl-4,5-dihydro-1H-pyrazole-3-carboxamide] were 112 nM, 50.5% and 23.2.
On CB1-receptor [2] (radioligand [3H]-CP55940), `COc1ccc([C@H]2[C@@H](C)C(C(=O)NC3CCCCCC3)=NN2c2ccc(Cl)cc2Cl)cc1` (relative stereo) [Example 275, cis-N-cycloheptyl-1-(2,4-dichlorophenyl)-5-(4-methoxyphenyl)-4-methyl-4,5-dihydro-1H-pyrazole-3-carboxamide] showed an IC50 of 66 nM. The Inhibition is 69.1% on CB1-receptor [3] (10^−7 M) and 26.1 at CB1-receptor [3] (10^−8 M, in %).
Regarding `C[C@H]1C(C(=S)NN2CCCCC2)=NN(c2ccc(Cl)cc2Cl)[C@H]1c1ccc(Cl)cc1` (relative stereo) [Example 379, cis-5-(4-chlorophenyl)-1-(2,4-dichlorophenyl)-4-methyl-N-(piperidin-1-yl)-4,5-dihydro-1H-pyrazole-3-carbothioamide hydrochloride], on CB1-receptor [2] (setting [4]), the IC50 was 112 nM. Moreover, the Inhibition at CB1-receptor [3] (10^−7 M) is listed as 74.5%; at CB1-receptor [3] (10^−8 M, in %) it was 27.0.
Taken in the same sequence, the figures for `C[C@H]1C(C(=O)NN2CCCCCC2)=NN(c2ccc(Cl)cc2Cl)[C@H]1c1ccc(Cl)cc1.Cl` (relative stereo) [Example 96, cis-5-(4-Chlorophenyl)-1-(2,4-dichlorophenyl)-4-methyl-4,5-dihydro-1H-pyrazole-3-carboxylic acid azepan-1-ylamide hydrochloride] were 7.9 nM, 80% and 65.
Take `C[C@H]1C(C(=O)O)=NN(c2ccc(Cl)cc2Cl)[C@H]1c1ccc(Cl)cc1` (racemic) [Example 19, cis-5-(4-Chloro-phenyl)-1-(2,4-dichloro-phenyl)-4-methyl-4,5-dihydro-1H-pyrazole-3-carboxylic acid]: in assay [1], the Antagonism was −18%. Further, the Inhibition at CB1-receptor [3] (10^−7 M) is recorded as −3.6%; at CB1-receptor [3] (10^−8 M, in %) it was −0.7.
Turning to `C[C@@H]1C(C(=O)NN2CCCCC2)=NN(c2ccc(Cl)cc2Cl)[C@@H]1c1ccc(Br)cc1.Cl` (relative stereo) [Example 418, cis-5-(4-bromophenyl)-1-(2,4-dichlorophenyl)-4-methyl-N-(piperidin-1-yl)-4,5-dihydro-1H-pyrazole-3-carboxamide hydrochloride], the IC50 at CB1-receptor [2] (setting [4]) turned out to be 36 nM. The Inhibition at CB1-receptor [3] (10^−7 M) came to 62.6%; on CB1-receptor [3] (10^−8 M, in %), 19.9.
On to `C[C@H]1C(C(=O)NN2CC3CCCC3C2)=NN(c2ccc(Cl)cc2Cl)[C@H]1c1ccc(Cl)cc1` (relative stereo) [Example 13, cis-5-(4-Chloro-phenyl)-1-(2,4-dichloro-phenyl)-4-methyl-4,5-dihydro-1H-pyrazole-3-carboxylic acid (hexahydro-cyclopenta[c]pyrrol-2-yl)-amide], for which, on CB1-receptor [2] (setting [4]), the IC50 is 25.1 nM. Besides, the Inhibition on CB1-receptor [3] (10^−7 M) stood at 70.6%; at CB1-receptor [3] (10^−8 M, in %) it was 27.6.

Usually IC50 stands for the midpoint of a concentration-inhibition curve.
